Laboratory results from patent US20030118571A1, “Oral administration of lactobacillus for the maintenance of health in women during pregnancy and at other life stages, to reduce the risk of urogenital diseases” (priority 1999, published 2003).
Read-outs that look alike come from different tables or passages of the source. No end group written: not given here.

Columns and labels:
Ps. aeruginosa = assay: MIC of peptides against uropathogenic microorganisms; type: cell-based, Pseudomonas aeruginosa AK1; settings: P. aeruginosa; bactericidal if less than 0.1% of original bacteria remained viable
Staph. epidermidis = assay: as above; type: cell-based, Staphylococcus epidermidis 1938
Kl. pneumoniae = assay: MIC of peptides against uropathogenic microorganisms; type: cell-based; settings: K. pneumoniae; bactericidal if less than 0.1% of original bacteria remained viable
E. coli = assay: MIC of peptides against uropathogenic microorganisms; type: cell-based, Escherichia coli HU734; settings: bactericidal if less than 0.1% of original bacteria remained viable

Protocol for L. fermentum B-54: (§1) Mean values obtained from three independent experiments are shown.
(§2) Action of the peptide was considered bactericidal if less than 0.1% of original number of bacteria remained viable following the treatment. Resistant organisms were also plated from the 100 μmol 1^−1 well to confirm presence of any inhibition.
Protocol for L. fermentum RC-14: as §1, §2
Protocol for L. plantarum RC-20: as §1, §2
Protocol for L. rhamnosus 81: as §1, §2
Protocol for L. rhamnosus GR-1: as §1, §2

| Substance | mode of action (Ps. aeruginosa) | MIC (Staph. epidermidis) [μmol 1^−1 M] | MIC (L. rhamnosus GR-1) [µM] | mode of action (Kl. pneumoniae) | MIC (L. rhamnosus 81) [µM] | MIC (L. fermentum RC-14) [µM] | MIC (L. fermentum B-54) [µM] | MIC (L. plantarum RC-20) [µM] | mode of action (E. coli) | susceptibility of strain to peptide (L. rhamnosus GR-1; L. rhamnosus GR-1, highest concentration 100 μmol 1^−1) | susceptibility of strain to peptide (L. rhamnosus 81; L. rhamnosus 81, highest concentration 100 μmol 1^−1) | susceptibility of strain to peptide (L. fermentum RC-14; L. fermentum RC-14, highest concentration 100 μmol 1^−1) | mode of action (L. fermentum B-54; L. fermentum B-54) | MIC (L. fermentum B-54; L. fermentum B-54 as indicator organism) [µM] | susceptibility of strain to peptide (L. plantarum RC-20; L. plantarum RC-20, highest concentration 100 μmol 1^−1) |
| --- | --- | --- | --- | --- | --- | --- | --- | --- | --- | --- | --- | --- | --- | --- | --- |
| SWLSKTAKKLENSAKKRISEGIAIAIQGGPR [Cecropin P1] | bacteriocidally | >100 | > 100 | bacteriocidally | > 100 | > 100 | > 100 | > 100 | bacteriocidally | – | – | – | – | – | – |
| FALL-39 (FALLGDFFRKSKEKIGKEFKRIVQRIKDFLRNLVPRTES; Antibacterial peptide FALL-39; UniProt P49913 132-170, looked up) | bacteriostatic | >100 | – | bacteriostatic | – | – | – | – | bactericidal | resistant | resistant | resistant | bacteriostatically | 100 | resistant |
